The values that follow come from US20110003854A1, “BREAST CANCER TREATMENT AND TREATMENT PREDICTION” (priority 2007, published 2011).

The test system of experiment [1] is stage II primary breast carcinoma. Description: Controlled, randomized adjuvant tamoxifen trial; Kaplan-Meier survival analysis by CRABP2 level on breast cancer TMA. It counts as in vivo, human. The text has this: Median age at diagnosis was 45 (25-57) years. Median follow-up was 13.9 years and less than 2% of the patients had received adjuvant chemotherapy. The study design is described in detail elsewhere (Rydén et al, Eur J Cancer, 2005, 41(2): 256-64). Ethical permission was obtained from the Local Ethics Committees at Lund and Linköping Universities.
All cases had been histopathologically re-evaluated on hematoxylin and eosin stained slides. TMA:s were then constructed by sampling 2×0.6 mm cores per case from areas representative of invasive cancer. The TMA:s were prepared and automated immunohistochemistry was performed as described in section 3 above, using the CRABP2 antibody prepared as described in section 2 above.
As with “staining intensity” in Examples, Section 3 above, ni was subjectively evaluated in accordance to standards used in clinical histo-pathological diagnostics and outcome was classified as: absent (O)=no immunoreactivity, weak (1)=faint immunoreactivity, moderate (2)=medium immunoreactivity or strong (3)=distinct and strong immunoreactivity. Further, as with “the fraction of stained cells” in Examples, Section 3 above, nf was classified as <2%, 2-25%, 26-75% or >75%. Two categories were defined: “CRABP2 low” corresponding to nf<=25% and ni=0-1; and “CRABP2 high” corresponding to nf>25% and/or ni=2-3 (FIG. 1). This classification of samples was used for recurrence free survival (RFS) or breast cancer specific survival ([…]) analysis according to the Kaplan-Meier estimator, and the log-rank test was used to compare survival in different strata. All statistical tests were two-sided, and p-values of <[…] were considered significant. All calculations were made with the statistical package SPSS 12.0 (SPSS Inc. Illinois, USA).

Experiment [2] has as its system breast cancer. Particulars: cited from earlier work.
In the next experiment the test system is ERα+/PR+ tumors. Particulars: cited from earlier work.
Experiment [3] concerns ERα positive breast cancer. The note with it: cited from earlier work.
For experiment [4], the system named is breast cancer. Particulars: five years adjuvant tamoxifen after primary surgery; ER positive tumors, irrespective of lymph node status; cited from earlier work.
Another experiment relates to ERα+/PR− tumors. Particulars: postmenopausal women, follow-up 6 years, compared to patients treated with tamoxifen; cited from earlier work.

Read-outs that look alike come from different tables or passages of the source.

`CC/C(=C(\c1ccccc1)c1ccc(OCCN(C)C)cc1)c1ccccc1` [tamoxifen]: the “recurrence free survival (RFS)” value is recorded as “improved survival” in experiment [1] (CRABP2 high tumors, irrespective of ER status, adjuvant tamoxifen 2 years vs control (FIG. 3B)); “no impact on survival” in experiment [1] (CRABP2 low tumors, irrespective of ER status, tamoxifen vs control (FIG. 3A)); “a trend towards a positive response” in experiment [1] (ERα+ and CRABP2 high, tamoxifen vs control (FIG. 4B)); “a trend towards a positive response” in experiment [1] (ERα+ and CRABP2 low, tamoxifen vs control (FIG. 4A)); “positively affected” in experiment [1] (ERα− and CRABP2 high, tamoxifen vs control (FIG. 5B)); “negatively affected” in experiment [1] (ERα− and CRABP2 low, tamoxifen vs control (FIG. 5A)). Further, the “recurrence free survival (RFS)” value in experiment [1] (ERα− and PR−, CRABP2 high, tamoxifen vs control (FIG. 11b)) was “better trend”; in experiment [1] (ERα− and PR−, CRABP2 low, tamoxifen vs control (FIG. 11a)), “worse trend”; in experiment [1] (ERα− and/or PR−, CRABP2 high, tamoxifen vs control (FIG. 9b)), “better trend”; in experiment [1] (ERα− and/or PR−, CRABP2 low, tamoxifen vs control (FIG. 9a)), “worse trend”; in experiment [1] (PR− and CRABP2 high, tamoxifen vs control (FIG. 7B)), “better survival probability trend”; in experiment [1] (PR− and CRABP2 low, tamoxifen vs control (FIG. 7A)), “negatively affected”. Also, the “breast cancer specific survival (BCSS)” value in experiment [1] (ERα− and CRABP2 high, tamoxifen vs control (FIG. 6B)) is “better trend”; in experiment [1] (ERα− and CRABP2 low, tamoxifen vs control (FIG. 6A)), “worse trend”; in experiment [1] (ERα− and PR−, CRABP2 high, tamoxifen vs control (FIG. 12b)), “better trend”; in experiment [1] (ERα− and PR−, CRABP2 low, tamoxifen vs control (FIG. 12a)) it was “worse trend”; in experiment [1] (ERα− and/or PR−, CRABP2 high, tamoxifen vs control (FIG. 10b)) it was “better trend”; in experiment [1] (ERα− and/or PR−, CRABP2 low, tamoxifen vs control (FIG. 10a)) it was “worse trend”. The “breast cancer specific survival (BCSS)” value in experiment [1] (PR− and CRABP2 high, tamoxifen vs control (FIG. 8B)) was “better trend”; in experiment [1] (PR− and CRABP2 low, tamoxifen vs control (FIG. 8A)), “worse trend”. For the same molecule, the “recurrence-free and overall survival” value with breast cancer [2] (high PR level, >75% nuclear fraction, irrespectively of ERα status) was “significantly correlated with an increased recurrence-free and overall survival”; in the experiment on breast cancer [2] (lower PR level, <75%), “no positive effect”. The disease free survival entry is listed as “significantly longer disease free survival” in the experiment on ERα+/PR+ tumors (older patients (≧60 years), ERα+/PR+ tumors, tamoxifen vs no adjuvant treatment) and “no significant effect” in the experiment on ERα+/PR+ tumors (younger patients (<60 years)). In addition, the “ERα positive patients that do not respond to treatment” value in experiment [3] is recorded as 30-40%. Further, the breast cancer mortality entry with breast cancer [4] was “reduces the breast cancer mortality”.

Regarding `CC(C)(C#N)c1cc(Cn2cncn2)cc(C(C)(C)C#N)c1` [anastrozole], the recurrence rate entry in the experiment with ERα+/PR− tumors was “halved”.
